Experimental data published in patent US10239843B2 (CANCER RESEARCH TECHNOLOGY LIMITED, priority 2014, dated 2019).
Read-outs that look alike come from different tables or passages of the source.

Assays:
[1] = target: Human Full Length PARG (Homo sapiens (Human), UniProt Q86W56); assay: PARG enzyme assay (TR-FRET); assay type: biochemical
[2] = system: PARG in HeLa cell line; assay: PARG cell assay (PAR chain immunofluorescence after MMS); assay type: cell-based; conditions: HeLa cells
Method: This method is based on the detection of endogenous levels of poly (ADP) ribose chains present in the nucleus of HeLa cell line using indirect immunofluorescence. MMS stimulation increases PAR chains for up to 25 mins. After that point, PARG is active and breaks down the PAR chains, until by one hour after stimulation no PAR chains are detectable. Inhibition of PARG maintains PAR chains.
Briefly, following compound treatment and treatment with the DNA damaging agent methylmethanesulfonate (MMS), the cell monolayer is fixed, then permeabilised and incubated with a mouse monoclonal antibody raised against multimers of poly(ADP) ribose.
At the end of the 1 h dosing period, MMS was added to duplicates at a final concentration of 50 μg/mL, for a further hour.
Media was tipped off and the cells fixed with 50 μL ice-cold 95% MetOH/PBS for 15 mins at −20° C. Following a PBS wash, 50 μL PBS/0.1% Triton was added to the cells for 20 mins. Following another PBS wash, anti-PAR antibody (Calbiochem AM80) was diluted 1:4000 in a buffer (PBS+0.5% FBS+0.05% Tween20) and added to the cells and incubated overnight at 4° C.
Cells were washed three times with PBS and the plate sealed with a light-proof seal.

[3] = Homo sapiens, MMS treatment, read-out: PARG Cell IC50
[4] = read-out: PARG Biochem IC50 Geomean
[5] = MMS 50 μg/mL, read-out: PARG Cell IC50 Geomean
[6] = Homo sapiens, MMS 50 μg/mL, read-out: PARG Cell IC50 Geomean

Human Full Length PARG, sequence (Q86W56 whole entry): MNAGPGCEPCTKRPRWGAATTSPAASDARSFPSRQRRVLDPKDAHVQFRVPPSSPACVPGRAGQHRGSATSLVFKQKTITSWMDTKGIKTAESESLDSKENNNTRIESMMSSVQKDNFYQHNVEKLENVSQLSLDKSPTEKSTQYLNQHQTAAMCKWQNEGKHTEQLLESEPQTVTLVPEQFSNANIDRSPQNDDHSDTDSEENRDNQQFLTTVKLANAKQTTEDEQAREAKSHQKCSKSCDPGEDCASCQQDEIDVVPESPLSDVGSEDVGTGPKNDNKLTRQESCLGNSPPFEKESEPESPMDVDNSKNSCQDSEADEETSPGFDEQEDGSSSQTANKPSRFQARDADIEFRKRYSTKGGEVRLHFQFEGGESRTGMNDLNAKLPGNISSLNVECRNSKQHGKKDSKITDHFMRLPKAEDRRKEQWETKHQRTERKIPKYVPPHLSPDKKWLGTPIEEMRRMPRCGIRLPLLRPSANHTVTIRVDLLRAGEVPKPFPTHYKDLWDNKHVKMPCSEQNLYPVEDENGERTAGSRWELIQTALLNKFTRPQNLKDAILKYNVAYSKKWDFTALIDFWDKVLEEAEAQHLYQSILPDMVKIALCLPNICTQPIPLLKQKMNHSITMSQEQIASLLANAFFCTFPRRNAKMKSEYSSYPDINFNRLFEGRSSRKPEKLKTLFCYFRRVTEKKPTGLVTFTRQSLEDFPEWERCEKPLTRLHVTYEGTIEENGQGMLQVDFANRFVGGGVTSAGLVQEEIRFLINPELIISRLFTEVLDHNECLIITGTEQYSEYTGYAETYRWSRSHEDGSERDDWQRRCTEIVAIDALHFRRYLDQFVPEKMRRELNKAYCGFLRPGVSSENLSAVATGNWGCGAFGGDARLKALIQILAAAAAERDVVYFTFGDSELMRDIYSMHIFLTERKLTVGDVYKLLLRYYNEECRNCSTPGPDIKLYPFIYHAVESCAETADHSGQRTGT

| SMILES | IC50 ([1]; read-out: PARG Biochem IC50) [nM] | IC50 [2, 3] [nM] | IC50 [1, 4] [nM] | IC50 [2, 5] [nM] | IC50 [2, 6] [nM] |
| --- | --- | --- | --- | --- | --- |
| Cc1ncc(Cn2c(=O)c3cc(S(=O)(=O)NC4(C#N)CC4)ccc3n(Cc3sc(C)nc3C)c2=O)s1 [Example 401, N-(1-Cyanocyclopropyl)-1-[(2,4-dimethylthiazol-5-yl)methyl]-3-[(2-methylthiazol-5-yl)methyl]-2,4-dioxo-quinazoline-6-sulfonamide] | 8 | 101 | – | – | – |
| Cn1c(=O)n(Cc2cnn3ccccc23)c(=O)c2cc(S(=O)(=O)NC3(C)CC3)ccc21 [Example 434, 1-Methyl-N-(1-methylcyclopropyl)-2,4-dioxo-3-(pyrazolo[1,5-a]pyridin-3-ylmethyl)quinazoline-6-sulfonamide] | 5910 | 609 | – | – | – |
| Cn1cc(Cn2c(=O)[nH]c3ccc(S(=O)(=O)NC4(C#N)CC4)cc3c2=O)cn1 [Example 336, N-(1-Cyanocyclopropyl)-3-[(1-methylpyrazol-4-yl)methyl]-2,4-dioxo-1H-quinazoline-6-sulfonamide] | – | – | 401 | 17900 | – |
| Cn1c(=O)n(Cc2cnc(NC(=O)OC(C)(C)C)s2)c(=O)c2cc(S(=O)(=O)NC3(C)CC3)ccc21 [Example 214] | – | – | 411 | 3470 | – |
| Cn1cc(Cn2c(=O)c3cc(S(=O)(=O)NC4(CF)CC4)ccc3n(CC(F)F)c2=O)cn1 [Example 600, 1-(2,2-Difluoroethyl)-N-[1-(fluoromethyl)cyclopropyl]-3-[(1-methylpyrazol-4-yl)methyl]-2,4-dioxo-quinazoline-6-sulfonamide] | 127 | 109 | – | – | – |
| COc1cccc(Cn2c(=O)n(Cc3cnn(C)c3)c(=O)c3cc(S(=O)(=O)NC4(C)CC4)ccc32)c1 [Example 172] | – | – | 100 | 193 | – |
| Cc1cc(Cn2c(=O)c3cc(S(=O)(=O)NC4(CF)CC4)ccc3n(Cc3nnc(C)o3)c2=O)on1 [Example 556, N-[1-(Fluoromethyl)cyclopropyl]-3-[(3-methylisoxazol-5-yl)methyl]-1-[(5-methyl-1,3,4-oxadiazol-2-yl)methyl]-2,4-dioxo-quinazoline-6-sulfonamide] | 348 | 1030 | – | – | – |
| Cc1cc(Cn2c(=O)c3cc(S(=O)(=O)NC4(C)CC4)ccc3n(CC3CCO3)c2=O)on1 (centres unmarked) [Example 349] | – | – | 252 | – | 632 |
| CCC(CC)Cn1c(=O)n(Cc2cc(C)no2)c(=O)c2cc(S(=O)(=O)NC3(C)CC3)ccc21 [Example 470, 1-(2-Ethylbutyl)-N-(1-methylcyclopropyl)-3-[(3-methylisoxazol-5-yl)methyl]-2,4-dioxo-quinazoline-6-sulfonamide] | 546 | 266 | – | – | – |
| Cc1ncc(Cn2c(=O)c3cc(S(=O)(=O)NC4(C)CC4)ccc3n(C)c2=O)cn1 [Example 433, 1-Methyl-N-(1-methylcyclopropyl)-3-[(2-methylpyrimidin-5-yl)methyl]-2,4-dioxo-quinazoline-6-sulfonamide] | 3340 | 1130 | – | – | – |
| CSCCn1c(=O)n(Cc2cc(C)no2)c(=O)c2cc(S(=O)(=O)NC3(C)CC3)ccc21 [Example 362] | – | – | 331 | – | 126 |
| Cn1cc(Cn2c(=O)c3cc(S(=O)(=O)NC4(CF)CC4)ccc3n(CC3CC3(F)F)c2=O)cn1 (centres unmarked) [Example 443, 1-[(2,2-Difluorocyclopropyl)methyl]-N-[1-(fluoromethyl)cyclopropyl]-3-[(1-methylpyrazol-4-yl)methyl]-2,4-dioxo-quinazoline-6-sulfonamide] | 58 | 67 | – | – | – |
| COc1cccc(Cn2c(=O)n(Cc3c(C)noc3C)c(=O)c3cc(S(=O)(=O)NC4(C)CC4)ccc32)c1 [Example 169] | – | – | 294 | 288 | – |
| CC(=O)Cn1c(=O)n(Cc2cc(C)no2)c(=O)c2cc(S(=O)(=O)NC3(C)CC3)ccc21 [Example 323] | – | – | 417 | – | 736 |
| Cn1cc(Cn2c(=O)c3cc(S(=O)(=O)NC4(C)CC4)ccc3n(CC3CCCCO3)c2=O)cn1 (centres unmarked) [Example 257] | – | – | 103 | – | 98 |
| CON(C)C(=O)c1cc(S(=O)(=O)NC2(C)CC2)cc2c(=O)n(Cc3cnn(C)c3)c(=O)[nH]c12 [Example 451, N-Methoxy-N-methyl-6-[(1-methylcyclopropyl)sulfamoyl]-3-[(1-methylpyrazol-4-yl)methyl]-2,4-dioxo-1H-quinazoline-8-carboxamide] | 3850 | 4500 | – | – | – |
| Cc1cc(Cn2c(=O)c3cc(S(=O)(=O)NC4(CF)CC4)ccc3n(Cc3ccc(F)cc3)c2=O)on1 [Example 518, N-[1-(Fluoromethyl)cyclopropyl]-1-[(4-fluorophenyl)methyl]-3-[(3-methylisoxazol-5-yl)methyl]-2,4-dioxo-quinazoline-6-sulfonamide] | 117 | 95 | – | – | – |
| Cc1cc(Cn2nc(NCCN(C)C)c3ccc(S(=O)(=O)NC4(C)CC4)cc3c2=O)on1 [Example 253] | – | – | 376 | – | 2020 |
| Cc1cc(Cn2c(=O)c3cc(S(=O)(=O)NC4(C)CC4)ccc3n(CC3CCOC3)c2=O)on1 (centres unmarked) [Example 268] | – | – | 111 | – | 217 |
| Cn1cc(Cn2c(=O)c3cc(S(=O)(=O)NC4(C)CC4)ccc3n(CC3CC(F)(F)C3)c2=O)cn1 [Example 436, 1-[(3,3-Difluorocyclobutyl)methyl]-N-(1-methylcyclopropyl)-3-[(1-methylpyrazol-4-yl)methyl]-2,4-dioxo-quinazoline-6-sulfonamide] | 118 | 70 | – | – | – |
| Cc1cc(Cn2c(=O)c3cc(S(=O)(=O)NC4(C)CC4)ccc3n(CC3CC(F)(F)C3)c2=O)on1 [Example 363] | – | – | 353 | – | 382 |
| Cc1cc(Cn2c(=O)c3cc(S(=O)(=O)NC4(CF)CC4)ccc3n(CC#N)c2=O)on1 [Example 523, 1-(Cyanomethyl)-N-[1-(fluoromethyl)cyclopropyl]-3-[(3-methylisoxazol-5-yl)methyl]-2,4-dioxo-quinazoline-6-sulfonamide] | 411 | 571 | – | – | – |
| Cc1cc(Cn2c(=O)c3cc(S(=O)(=O)NC4(CF)CC4)ccc3n(Cc3nncs3)c2=O)on1 [Example 627, N-[1-(Fluoromethyl)cyclopropyl]-3-[(3-methylisoxazol-5-yl)methyl]-2,4-dioxo-1-(1,3,4-thiadiazol-2-ylmethyl)quinazoline-6-sulfonamide] | 159 | 351 | – | – | – |
| Cc1cc(Cn2c(=O)c3cc(S(=O)(=O)NC4(C#N)CC4)ccc3n(C)c2=O)on1 [Example 229] | – | – | 446 | – | 1470 |
| Cc1cc(Cn2c(=O)c3cc(S(=O)(=O)NC4(C)CC4)ccc3n(CC3CCCCC3)c2=O)on1 [Example 290] | – | – | 497 | – | 260 |
| Cc1cc(Cn2c(=O)c3cc(S(=O)(=O)NC4(C)CC4)ccc3n(CC3CCC(F)(F)CC3)c2=O)on1 [Example 405, 1-[(4,4-Difluorocyclohexyl)methyl]-N-(1-methylcyclopropyl)-3-[(3-methylisoxazol-5-yl)methyl]-2,4-dioxo-quinazoline-6-sulfonamide] | 248 | 144 | – | – | – |
| Cn1cc(Cn2c(=O)[nH]c3ccc(S(=O)(=O)NC4(C)CC4)cc3c2=O)cn1 [Example 430, N-(1-Methylcyclopropyl)-3-[(1-methylpyrazol-4-yl)methyl]-2,4-dioxo-1H-quinazoline-6-sulfonamide] | – | 1080 | – | – | – |
